{"source": "patent US7166744B2", "about": "“Retinoid derivatives and methods for producing said compounds and anti-cancer pharmaceutical composition comprising said compounds” (Chebigen Co., Ltd., priority 2001, dated 2007)", "format_in_all_cases": "cell-based", "key": {"[1]": {"tested_on": "SK-Hep-1 liver cancer cells", "experiment": "Trypan blue surviving cell count, SK-HEP-1", "source_text": "Surviving cells, which had not be stained by trypan blue were counted and the results are shown in Table 3 as relative surviving cells (%)."}, "[2]": {"tested_on": "HCT116 colon cancer cells", "experiment": "DAPI staining of nuclei, HCT116", "conditions": "for nuclear condensation (DAPI): HCT116, Experimental Example 8; for nuclear condensation and fragmentation (DAPI): HCT116, 5 μM, 36 h", "method": "By DAPI (4,6-diamidino-2-phenylindole) staining assay for staining DNA in cellular nucleus, nuclear condensation and fragmentation, characteristic features of apoptosis, were observed. […] In FIG. 4, the control represents non-treated cells. The sub-G1 DNA contents of colon cancer HTC116 cells and breast cancer MCF-7 cells were measured by FACS (Fluorescence-Activated Cell Sorter) assay to quantify the apoptosis (FIG. 5). Finally, in order to further characterize the apoptosis observed in retinoid derivative-treated cells, the cleavage of apoptosis-related proteins, including PARP (poly(ADP-ribose)polymerase) and CPP32 (caspase-3) by Western blotting. […] PARP cleavage occurred in a time-dependent manner, in parallel with the induction of apoptosis (FIG. 6B). C in FIG. 6 represents the result of Western blotting of non-treated cells.\nMeanwhile, HPR which is a precursor during the synthesis process of KCBG60 is known to induce apoptosis. Considering that the cells aggregated into small spherical mass upon treatment with KCBG60, KCBG60 is expected to induce apoptosis. In order to confirm apoptosis induced by KCBG60 once again, KCBG60-treated HCT116 cells were stained with DAPI and observed for nuclear condensation, an indicative of apoptosis (FIG. 12)."}, "RARγ": {"molecular_target": "T1, RARγ (Homo sapiens, UniProt P13631)", "T1 construct": "expressed in transfected cells", "T1 sequence (P13631 1-454)": "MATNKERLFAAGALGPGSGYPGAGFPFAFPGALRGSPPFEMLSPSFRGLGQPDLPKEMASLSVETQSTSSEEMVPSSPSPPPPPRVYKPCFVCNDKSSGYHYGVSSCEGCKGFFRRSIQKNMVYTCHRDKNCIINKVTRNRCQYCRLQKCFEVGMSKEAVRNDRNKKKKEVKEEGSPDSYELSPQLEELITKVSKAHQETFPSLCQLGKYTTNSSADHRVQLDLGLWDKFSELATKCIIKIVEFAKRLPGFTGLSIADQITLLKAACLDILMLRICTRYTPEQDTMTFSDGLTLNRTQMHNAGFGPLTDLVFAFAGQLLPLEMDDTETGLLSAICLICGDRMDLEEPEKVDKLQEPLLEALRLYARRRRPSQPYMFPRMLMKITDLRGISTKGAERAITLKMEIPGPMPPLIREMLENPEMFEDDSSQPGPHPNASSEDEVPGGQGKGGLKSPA", "experiment": "CAT reporter assay, RARγ", "conditions": "1 μM, control = 1.0; for expression level of CAT enzyme, RARγ −: column '−'", "source_text": "In order to confirm the effect of KCBG60 according to the present invention on retinoid receptor activity, cells were cotransfected with expression vectors of receptor subfamilies and reporter genes. As the reporter gene, chloramphenicol acetyltransferase (CAT) with a transcription control site reactive to respective receptors was used."}, "[3]": {"tested_on": "HCT116 colon cancer cells", "experiment": "MTT proliferation assay, HCT116", "method": "(§1) The effects of test compounds on proliferation of various cancer cells was examined by 3-(4,5-dimethylthiazol-2-yl)-2,5-diphenyltetrazolium bromide (MTT, Sigma) assay in a dose dependent manner. In the MTT assay, colon, liver, cervix, ovary, and breast cancer cell lines were treated with test compounds at various concentrations. Living cancer cells reduce MTT to dark blue MTT formazan that would be measured by absorbance.\n(§2) Colon cancer cells, HCT116, DLD-1 and HT29, cervix cancer cells, HeLa and CaSki, ovary cancer cells, SKOV-3, 2774 and OVCAR-3, liver cancer cells, SK-Hep-1, PLCPRF5 and HepG2, and breast cancer cells, ZR75-1 and MDA-MB 231 were seeded at an initial density of 3000 cells per well in 96-well plates. After attachment of cells to the walls of the wells, the medium containing fresh retinoid was treated with various concentrations (0.5 μM, 1 μM, 2.5 μM, 5 μM, 10 μM) for 48 hours. 50 μl of MTT solution (2 mg/ml in PBS) was added to cell culture media. The reaction micture was incubated at 37° C. in a 5% CO2 atmosphere for 4 hours. The supernatant was removed and 150 μl of DMSO was added. The optical density was measured spectrophotometrically at 550 nm. […] For other retinoid derivatives according to the present invention, absorbances were measured by this procedure and IC50 values, concentrations required for 50% growth inhibition, were determined."}, "2774 ovary cancer cells": {"tested_on": "2774 ovary cancer cells", "experiment": "MTT proliferation assay, 2774", "conditions": "48 hours, ovarian cancer", "method": "as §1, §2"}, "[4]": {"tested_on": "OVCAR-3 ovary cancer cells", "experiment": "MTT proliferation assay, OVCAR-3", "conditions": "ovarian cancer", "method": "as §1, §2"}, "[5]": {"tested_on": "ZR75-1 breast cancer cells", "experiment": "MTT proliferation assay, ZR75-1", "method": "as §1, §2"}, "[6]": {"tested_on": "MDA-MB-231 breast cancer cells", "experiment": "MTT proliferation assay, MDA-MB-231", "method": "as §1, §2"}, "[7]": {"tested_on": "MCF-7 breast cancer cells", "experiment": "DNA fragmentation assay (agarose gel), MCF-7", "conditions": "MCF-7, 2.5, 5.0, 10 μM, 48 hours", "method": "After treated with each retinoid derivative at various concentrations (2.5, 5.0, 10 μM) for 48 hours, HCT116 or MCF-7 cells were poured in 1 mL of PBS and centrifuged at a rate of 13,000 rpm at 4° C. for 1 min. The resulting cell pellets were resuspended in 700 μl of lysis buffer (500 mM Tris, 100 mM EDTA, 0.5% SDS) containing 17.5 μl of proteinase K (20 mg/ml), and incubated on 55° C. water bath for 3 hours. The lysates were mixed with 700 μl of phenol solution while slowly stirring and centrifuged at 12,000 rpm for 5 min. The supernatants were separated and extracted with phenol once more. The supernatants were mixed with 600 μl of 100% ethanol and 60 μl of 3M NaOAc (pH 7.0) and left at −20° C. for 2 hours. The supernatants were removed by centrifugation at 12,000 rpm for 10 min to obtain pellets. After 70% ethanol washing and drying, DNA pellet was resuspended in 100 μl of TE (Tris-EDTA) buffer and treated with RNase A. The obtained samples were electrophoresed for 2 hours at 75 V on 1.8% agarose gels."}}, "note": "Entries after “also recorded” stand apart in the source; their conditions may differ.", "data": [{"compound": "CCCC(=O)Oc1ccc(NC(=O)/C=C(C)/C=C/C=C(C)/C=C/C2=C(C)CCCC2(C)C)cc1", "note": "[KCBG60]", "values": [{"measurement": "relative surviving cells (%)", "setting": "[1]; SK-HEP-1, 0.5 μM", "value": 90, "unit": "%"}, {"measurement": "relative surviving cells (%)", "setting": "[1]; SK-HEP-1, 1 μM", "value": 75, "unit": "%"}, {"measurement": "relative surviving cells (%)", "setting": "[1]; SK-HEP-1, 5 μM", "value": 48, "unit": "%"}, {"measurement": "relative surviving cells (%)", "setting": "[1]; SK-HEP-1, 10 μM", "value": 10, "unit": "%"}, {"measurement": "nuclear condensation (DAPI)", "setting": "[2]", "value": "showed small spots, indicating nuclear condensation"}, {"measurement": "expression level of CAT enzyme, RARγ +", "setting": "RARγ", "value": 1.9}, {"measurement": "expression level of CAT enzyme, RARγ −", "setting": "RARγ", "value": 0.6}]}, {"compound": "CC1=C(/C=C/C(C)=C/C=C/C(C)=C/C(=O)O)C(C)(C)CCC1", "note": "[ATRA, All-trans-retinoic acid, reference compound]", "values": [{"measurement": "IC50", "setting": "[3]; Homo sapiens, HCT-116, 48 hours", "value": 20, "unit": "µM"}, {"measurement": "IC50", "setting": "2774 ovary cancer cells", "value": "> 100", "unit": "µM"}, {"measurement": "IC50", "setting": "[4]; Homo sapiens, OVCAR-3, 48 hours", "value": "> 100", "unit": "µM"}, {"measurement": "IC50", "setting": "[5]; Homo sapiens, ZR-75-1, 48 hours", "value": "> 500", "unit": "µM"}, {"measurement": "IC50", "setting": "[6]; Homo sapiens, MDA-MB-231, 48 hours", "value": "> 100", "unit": "µM"}, {"measurement": "expression level of CAT enzyme, RARγ +", "setting": "RARγ", "value": 49.3}, {"measurement": "expression level of CAT enzyme, RARγ −", "setting": "RARγ", "value": 14.1}]}, {"compound": "phenyl butylate", "values": [{"measurement": "relative surviving cells (%)", "setting": "[1]; SK-HEP-1, 0.5 μM", "value": 102, "unit": "%"}, {"measurement": "relative surviving cells (%)", "setting": "[1]; SK-HEP-1, 1 μM", "value": 103, "unit": "%"}, {"measurement": "relative surviving cells (%)", "setting": "[1]; SK-HEP-1, 5 μM", "value": 95, "unit": "%"}, {"measurement": "relative surviving cells (%)", "setting": "[1]; SK-HEP-1, 10 μM", "value": 87, "unit": "%"}, {"measurement": "nuclear condensation (DAPI)", "setting": "[2]", "value": "nuclei were observed normal"}, {"measurement": "expression level of CAT enzyme, RARγ +", "setting": "RARγ", "value": 1.1}, {"measurement": "expression level of CAT enzyme, RARγ −", "setting": "RARγ", "value": 0.8}]}, {"compound": "CCCC(=O)Nc1cc(NC(=O)/C=C(C)/C=C/C=C(C)/C=C/C2=C(C)CCCC2(C)C)ccc1O", "note": "[KCBG41, (2E,4E,6E,8E)-[3,7-dimethyl-9-(2,6,6-trimethylcyclohex-1-enyl)-nona-2,4,6,8-tetraenoylamino]-(3-butyrylamino-4-hydroxy)phenylamide]", "values": [{"measurement": "IC50", "setting": "[3]; 48 hours", "value": 1.4, "unit": "µM"}, {"measurement": "IC50", "setting": "2774 ovary cancer cells", "value": 2.5, "unit": "µM"}, {"measurement": "IC50", "setting": "[4]; 48 hours", "value": 3.7, "unit": "µM"}, {"measurement": "IC50", "setting": "[5]; 48 hours", "value": 4.1, "unit": "µM"}, {"measurement": "IC50", "setting": "[6]; 48 hours", "value": 3.3, "unit": "µM"}, {"measurement": "DNA ladder (DNA fragmentation)", "setting": "[7]", "value": "DNA band of the ladder shape caused by DNA fragmentation was well detected"}, {"measurement": "nuclear condensation and fragmentation (DAPI)", "setting": "[2]", "value": "largely showed nuclear fragmentation"}]}, {"compound": "CC1=C(/C=C/C(C)=C/C=C/C(C)=C/C(=O)Nc2ccc(O)cc2)C(C)(C)CCC1", "note": "[HPR, (2E,4E,6E,8E)-[3,7-dimethyl-9-(2,6,6-trimethylcyclohex-1-enyl)-nona-2,4,6,8-tetraenoylamino]-4-hydroxyphenylamide]", "values": [{"measurement": "IC50", "setting": "[3]; 48 hours", "value": "6 to 8", "unit": "µM"}, {"measurement": "IC50", "setting": "2774 ovary cancer cells", "value": 30, "unit": "µM"}, {"measurement": "IC50", "setting": "[4]; 48 hours", "value": 8, "unit": "µM"}, {"measurement": "IC50", "setting": "[5]; 48 hours", "value": 15, "unit": "µM"}, {"measurement": "IC50", "setting": "[6]; 48 hours", "value": 10, "unit": "µM"}, {"measurement": "relative surviving cells (%)", "setting": "[1]; SK-HEP-1, 0.5 μM", "value": 90, "unit": "%"}, {"measurement": "relative surviving cells (%)", "setting": "[1]; SK-HEP-1, 1 μM", "value": 73, "unit": "%"}, {"measurement": "relative surviving cells (%)", "setting": "[1]; SK-HEP-1, 5 μM", "value": 45, "unit": "%"}, {"measurement": "relative surviving cells (%)", "setting": "[1]; SK-HEP-1, 10 μM", "value": 15, "unit": "%"}, {"measurement": "DNA ladder (DNA fragmentation)", "setting": "[7]", "value": "did not show any DNA ladder"}, {"measurement": "nuclear condensation and fragmentation (DAPI)", "setting": "[2]", "value": "largely showed nuclear fragmentation"}, {"measurement": "expression level of CAT enzyme, RARγ +", "setting": "RARγ", "value": 24.8}, {"measurement": "expression level of CAT enzyme, RARγ −", "setting": "RARγ", "value": 4.5}]}, {"compound": "CCCC(=O)Oc1cc(O)ccc1NC(=O)/C=C(C)/C=C/C=C(C)/C=C/C1=C(C)CCCC1(C)C", "note": "[KCBG10, 2.2-[(2E,4E,6E,8E)-3,7-Dimethyl-9-(2,6,6-trimethylcyclohex-1-enyl)-nona-2,4,6,8-tetraenoylamino]-5-hydroxyphenylbutanoate]", "values": [{"measurement": "IC50", "setting": "[3]; 48 hours", "value": 3, "unit": "µM"}, {"measurement": "IC50", "setting": "2774 ovary cancer cells", "value": 8, "unit": "µM"}, {"measurement": "IC50", "setting": "[4]; 48 hours", "value": 0.8, "unit": "µM"}, {"measurement": "IC50", "setting": "[5]; 48 hours", "value": 2, "unit": "µM"}, {"measurement": "IC50", "setting": "[6]; 48 hours", "value": 3.5, "unit": "µM"}, {"measurement": "DNA ladder (DNA fragmentation)", "setting": "[7]", "value": "DNA band of the ladder shape caused by DNA fragmentation was well detected; also recorded: at a low concentration showed DNA fragmentation"}, {"measurement": "nuclear condensation and fragmentation (DAPI)", "setting": "[2]", "value": "largely showed nuclear fragmentation"}]}]}
